Marks after values point to notes of the source that are not given here.
Legend:
RARβ = molecular target: T1, RARβ (Mus musculus, UniProt P22605); assay: RAR beta transactivation assay (gal4-RAR LBD fusion, luciferase reporter, COS-7 cells); format: cell-based
T1 construct: expressed in transfected cells; host or cells: COS-7
T1 sequence (P22605 210-444 limits assumed): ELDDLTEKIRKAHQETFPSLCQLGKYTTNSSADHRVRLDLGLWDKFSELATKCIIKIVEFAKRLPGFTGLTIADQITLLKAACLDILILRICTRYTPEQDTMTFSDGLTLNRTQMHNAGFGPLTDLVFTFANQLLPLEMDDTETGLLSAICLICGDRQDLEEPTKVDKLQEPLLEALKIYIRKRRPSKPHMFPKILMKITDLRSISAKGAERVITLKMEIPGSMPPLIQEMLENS
Protocol: (§1) Compounds were tested in transactivation assays at the RAR α, β and γ receptors.
(§2) Transactivation assays for RAR alpha, beta and gamma receptors:
(§3) Transcriptional transactivation assays have been performed with gal4 fusion receptor constructs, created using each of the mouse RAR ligand-binding domains, co-transfected with the pFR-luc (Stratagene) reporter construct in COS-7 cells.
(§4) Briefly, on day one, 96 well plates were seeded with 8000 cells per well then left to recover overnight. On day two, the cells were co-transfected with 100ng of reporter plasmid and 10ng of the appropriate receptor plasmid per well using lipofectamine (Invitrogen). On day three, the lipofectamine containing media was replaced by a DMEM without phenol red, followed by the addition of novel compounds dissolved in 1µl of DMSO to each well’s 100µl total volume. Finally, on day four, the cells were lysed and their luciferase substrate was provided by the BrightGlo reagent (Promega), the plates were then read on the MicroBeta TriLux (Perkin Elmer).
(§5) Data for test compounds are quoted as EC50 values. Where replicate data has been generated the data are quoted as the mean EC50 from the separate experiments.

Pharmacokinetics in rat = format: in vivo; design: Volume distribution ss: unit not given here
RARγ = molecular target: T2, RARγ (Mus musculus, UniProt P18911); assay: RAR gamma transactivation assay (gal4-RAR LBD fusion, luciferase reporter, COS-7 cells); format: cell-based; settings: mouse RAR ligand binding domain; Tables 1 and 4; read-out: γ EC50
T2 construct: expressed in transfected cells; host or cells: COS-7
T2 sequence (P18911 185-419 limits assumed): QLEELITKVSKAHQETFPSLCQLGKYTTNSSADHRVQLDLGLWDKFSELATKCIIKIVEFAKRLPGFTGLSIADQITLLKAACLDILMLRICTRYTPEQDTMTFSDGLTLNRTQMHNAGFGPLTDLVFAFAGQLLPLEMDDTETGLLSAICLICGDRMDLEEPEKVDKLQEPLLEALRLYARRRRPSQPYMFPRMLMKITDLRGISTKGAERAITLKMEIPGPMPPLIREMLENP
Protocol: as §1, §2, §3, §4, §5

avulsed rats = assay: Rodent model of avulsion: sensory and locomotor tasks; format: in vivo, rat; settings: 3 mg/kg, po, three times a week
Protocol: Rats were trained for two weeks prior to surgery in behavioural tasks and scores were recorded the day before surgery, the day after surgery and then weekly, for four weeks. Surgery was performed as previously described.[11], [12] In a sticky tape task, the time taken to sense and remove the tape from the paw of the lesioned forelimbs was measured. […] In locomotor tasks, the number of foot slips in a horizontal ladder made by the injured forelimb of the compound 10 treated rats was also measured. […] Further details and data on an in vivo model of crush injury will be presented in due course.
Fig. 2 Effects of oral administration of compound 10 in sensory and locomotor functions in avulsed rats. Dose 3 mg/kg, po, three times a week, every other day. Data represent mean ± SEM of n = 8, **p ≤ 0.005, ***p ≤ 0.001. Two-way repeated-measures ANOVA, Tukey’s post-hoc test.

bacterial = assay: Bacterial cytotoxicity tests; format: cell-based; settings: up to 100 μM
Pharmacokinetics in dog = format: in vivo; design: Volume distribution ss: unit not given here
[1] = Human microsomal stability (Clint); format: in vitro ADME
RARα = molecular target: T3, RARα (Mus musculus, UniProt P11416); assay: RAR alpha transactivation assay (gal4-RAR LBD fusion, luciferase reporter, COS-7 cells); format: cell-based; settings: mouse RAR ligand binding domain; usually three experiments; read-out: α EC50
T3 construct: expressed in transfected cells; host or cells: COS-7
T3 sequence (P11416 183-417 limits assumed): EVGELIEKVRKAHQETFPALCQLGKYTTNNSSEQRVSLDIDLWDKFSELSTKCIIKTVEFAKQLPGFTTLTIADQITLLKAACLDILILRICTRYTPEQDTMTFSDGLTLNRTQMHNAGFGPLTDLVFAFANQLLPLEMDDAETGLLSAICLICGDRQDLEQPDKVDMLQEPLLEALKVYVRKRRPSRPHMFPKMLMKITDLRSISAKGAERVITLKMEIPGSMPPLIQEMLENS
Protocol: as §1, §2, §3, §4, §5

Cyp450 2D6 = Cyp450 2D6 (Homo sapiens, UniProt P10635); assay: Cyp450 inhibition, 2D6; format: in vitro ADME; settings: isoform 2D6
Cyp450 3A4 = Cyp450 3A4 (Homo sapiens, UniProt P08684); assay: Cyp450 inhibition, 3A4; format: in vitro ADME; settings: isoform 3A4
[2] = Human plasma protein binding; format: in vitro ADME
HEPG2 cell = HEPG2 cell toxicity assay; format: cell-based; settings: highest concentration tested 50 μM
Cerebellar neurons = assay: Neurite outgrowth in cerebellar cultures on CHO-MAG monolayer; format: cell-based; settings: 24 hr treatment, 1 × 10^−8–1 × 10^−6 M
Protocol: Compound 10 was evaluated for neurite outgrowth/branching in cerebellar cultures. Cerebellar cultures grown on a monolayer of CHO-MAG were treated with RARβ agonists and neurite outgrowth was assessed by immunostaining and neurite length quantification.[10]
Fig. 1 Effects of RARβ agonists 10 on neurite outgrowth. Cerebellar neurons grown on a monolayer of CHO-MAG cells were treated for 24 hr with either vehicle (V) or increasing doses of RARβ agonists (1 × 10^−8–1 × 10^−6 M). Both RARβ agonists increase neurite outgrowth in a dose dependant manner. Results are means from 3 independent experiments. Statistical analysis was done using Student’s t-test between vehicle and each drug’s highest dose. Error bars are SEM and **p ≤ 0.001, *p ≤ 0.01.

Cyp450 2C19 = Cyp450 2C19 (Homo sapiens, UniProt P33261); assay: Cyp450 inhibition, 2C19; format: in vitro ADME; settings: isoform 2C19
[3] = LogD by shake flask method; format: physicochemical; settings: pH 7.4

Sequence of Cyp450 2D6 (P10635 whole entry, canonical isoform): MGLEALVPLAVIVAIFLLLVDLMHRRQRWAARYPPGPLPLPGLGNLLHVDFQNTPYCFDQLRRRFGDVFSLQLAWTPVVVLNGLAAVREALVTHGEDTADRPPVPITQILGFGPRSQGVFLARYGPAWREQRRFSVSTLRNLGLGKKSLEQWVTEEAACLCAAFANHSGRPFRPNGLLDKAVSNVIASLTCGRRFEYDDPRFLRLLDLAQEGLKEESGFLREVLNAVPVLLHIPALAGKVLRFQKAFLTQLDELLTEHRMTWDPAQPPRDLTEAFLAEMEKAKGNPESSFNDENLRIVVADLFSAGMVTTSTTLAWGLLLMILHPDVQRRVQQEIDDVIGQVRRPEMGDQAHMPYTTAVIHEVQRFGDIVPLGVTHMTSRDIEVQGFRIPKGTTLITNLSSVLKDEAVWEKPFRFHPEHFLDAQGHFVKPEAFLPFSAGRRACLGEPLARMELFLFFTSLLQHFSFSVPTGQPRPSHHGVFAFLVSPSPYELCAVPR
Sequence of Cyp450 3A4 (P08684 whole entry, canonical isoform): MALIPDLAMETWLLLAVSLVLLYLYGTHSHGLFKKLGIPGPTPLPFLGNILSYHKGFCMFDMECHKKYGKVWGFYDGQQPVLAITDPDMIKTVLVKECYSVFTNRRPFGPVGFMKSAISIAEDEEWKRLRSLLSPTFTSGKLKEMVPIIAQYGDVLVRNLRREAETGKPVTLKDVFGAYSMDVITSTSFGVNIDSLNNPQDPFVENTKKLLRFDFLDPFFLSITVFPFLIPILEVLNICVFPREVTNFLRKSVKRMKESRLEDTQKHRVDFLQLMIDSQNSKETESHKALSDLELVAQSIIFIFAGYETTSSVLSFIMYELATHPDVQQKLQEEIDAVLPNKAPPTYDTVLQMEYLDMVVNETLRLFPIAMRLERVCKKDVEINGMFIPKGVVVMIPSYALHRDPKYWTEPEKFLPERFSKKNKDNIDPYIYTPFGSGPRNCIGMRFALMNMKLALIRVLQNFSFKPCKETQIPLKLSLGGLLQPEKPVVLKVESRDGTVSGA
Sequence of Cyp450 2C19 (P33261 whole entry, canonical isoform): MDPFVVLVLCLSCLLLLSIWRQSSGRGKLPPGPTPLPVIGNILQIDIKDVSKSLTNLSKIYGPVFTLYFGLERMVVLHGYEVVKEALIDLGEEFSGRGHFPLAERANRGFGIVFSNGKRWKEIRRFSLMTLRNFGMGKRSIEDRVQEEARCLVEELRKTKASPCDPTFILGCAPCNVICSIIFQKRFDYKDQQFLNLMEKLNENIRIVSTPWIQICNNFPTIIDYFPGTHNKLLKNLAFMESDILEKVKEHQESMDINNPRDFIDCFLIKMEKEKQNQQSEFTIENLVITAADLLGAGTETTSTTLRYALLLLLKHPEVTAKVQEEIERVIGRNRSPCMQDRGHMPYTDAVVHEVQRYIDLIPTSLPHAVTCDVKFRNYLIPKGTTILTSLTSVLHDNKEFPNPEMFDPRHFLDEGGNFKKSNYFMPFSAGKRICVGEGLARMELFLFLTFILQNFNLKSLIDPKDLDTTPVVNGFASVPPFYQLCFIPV

## Cc1ccc(C)c2oc(-c3nc(-c4ccc(C(=O)O)cc4)no3)cc12 [Compound 10, 4-(5-(4,7-dimethylbenzofuran-2-yl)-1,2,4-oxadiazol-3-yl)benzoic acid]
RARβ; EC50 ratio of α to β, mouse, Tables 1 and 4
  Fold selectivity for β over α: 13
RARβ; EC50 ratio of γ to β, mouse
  Fold selectivity for β over γ: 5.6
RARβ; maximum upper asymptote within 20% of that found for ATRA
  agonist behaviour (full/partial) relative to ATRA: full agonist
RARβ; mouse RAR ligand binding domain, usually three experiments, read-out: β EC50
  EC50: 1.9 nM
Pharmacokinetics in rat; blood, rat, iv dose 0.5 mg/kg
  clearance: 3.7 mL/min/kg
Pharmacokinetics in rat; in vivo, rat, oral doses of 1, 3 and 10 mg/kg
  Tmax: 1.7 h
Pharmacokinetics in rat; rat
  t1/2: 1.4 h
Pharmacokinetics in rat; rat, iv dose 0.5 mg/kg
  Volume distribution ss: 0.41
Pharmacokinetics in rat; rat, mean of 1, 3 and 10 mg/kg oral in comparison to iv 0.5 mg/kg
  Fraction absorbed: 80 ^b %
Pharmacokinetics in rat; rats
  oral bioavailability: > 40%
Pharmacokinetics in rat; rats, 8 h after dosing orally
  CNS penetration: brain tissue compared to plasma: nearly equivalent amounts detected in brain tissue when compared to plasma
RARγ
  EC50: 11 nM
Avulsed rats; from week three
  sticky tape task latency (sense and remove tape), injured forelimb vs vehicle: significantly lower latencies
Avulsed rats; from week two
  number of foot slips in horizontal ladder, injured forelimb vs vehicle: markedly lower
bacterial
  bacterial cytotoxicity: inactive
Pharmacokinetics in dog
  t1/2: 2.5 h
Pharmacokinetics in dog; blood, iv dose 0.5 mg/kg
  clearance: 1.1 mL/min/kg
Pharmacokinetics in dog; in vivo, po, 3 mg/kg, dogs
  bioavailability: > 40%
Pharmacokinetics in dog; iv dose 0.5 mg/kg
  Volume distribution ss: 0.23
Pharmacokinetics in dog; oral 3 mg/kg vs iv 0.5 mg/kg
  Fraction absorbed: 45%
Pharmacokinetics in dog; oral dose 3 mg/kg
  Tmax: 1.0 h
[1]
  stability in human microsomes (in words): very high stability
[1]; human microsomes, 37 °C, NADPH, 45 min, mean of 5 experiments
  microsomal CLint: < 1 µL/min/mg
RARα
  EC50: 26 nM
Cyp450 2D6
  IC50: > 25 µM
Cyp450 3A4
  IC50: > 25 µM
[2]
  fraction unbound: 0.02
HEPG2 cell
  HEPG2 cell toxicity alerts: completely devoid of alerts
Cerebellar neurons
  neurite length / outgrowth: increased neurite length in a dose dependant manner
Cyp450 2C19
  IC50: > 25 µM
[3]
  logD: 2.8

Source: publication PMC6419571, “Discovery and lead optimisation of a potent, selective and orally bioavailable RARβ agonist for the potential treatment of nerve injury” (Bioorganic & Medicinal Chemistry Letters, 2019)
